Measurements: PMC9127186, “Molecular Basis Underlying Hepatobiliary and Renal Excretion of Phenolic Acids of Salvia miltiorrhiza Roots (Danshen)” (Frontiers in Pharmacology, 2022)

How the values were obtained:
human MRP3 = human MRP3 (Homo sapiens, UniProt O15438); experiment: Vesicular transport assay, inside-out membrane vesicles expressing human MRP3; details: 10 min
Description: (§1) Inside-out membrane vesicles (5 mg protein/mL), prepared from insect cells expressing human multidrug resistance-associated protein (MRP) 2, MRP3, MRP4, breast cancer resistance protein (BCRP), bile salt export pump (BSEP), and multidrug resistance protein (MDR) one and rat Mrp2, Mrp4, Bcrp, and Bsep, and vesicles (5 mg protein/mL; prepared from the insect cells expressing no ABC transporter; serving as negative control) were obtained from Genomembrane (Kanazawa, Japan).
(§2) The test Danshen compounds at 100 µM final concentration were separately incubated with the membrane vesicles for 10 min. Buffer C (50 mM MOPS-tris, 70 mM KCl, 7.5 mM MgCl2, pH 7.0) was used for preincubation and incubation, while buffer D (40 mM MOPS-tris, 70 mM KCl, pH 7.0) was used for vesicle washing. The transport rate (pmol/mg protein/min) of the test Danshen compound was calculated using Equation (2): Transport=(CV×VV)/T/WV (2) where C V, V V, T, and W V represent concentration of the compound in vesicular lysates supernatant (μM), volume of the lysates (μL), incubation time (10 min), and amount of vesicle protein amount per well (0.05 mg), respectively. Differential transport of the test Danshen compound between ATP-containing vesicles and AMP-containing vesicles was defined as net transport ratio (TransportATP/TransportAMP ratio). […] All the incubation samples were analyzed by liquid chromatography/mass spectrometry.

human MRP2 = human MRP2 (Homo sapiens, UniProt Q92887); experiment: Vesicular transport assay, inside-out membrane vesicles expressing human MRP2; details: for TransportATP/TransportAMP ratio (net transport ratio): 10 min
Description: as §1, §2

rat Oatp1b2 = biological target: T1, rat Oatp1b2 (Rattus norvegicus, UniProt Q9QZX8); experiment: Cellular transport assay, HEK-293 cells expressing rat Oatp1b2; details: for TransportTC/TransportMC ratio (net transport ratio): 10 min
T1 sequence (Q9QZX8 1-687): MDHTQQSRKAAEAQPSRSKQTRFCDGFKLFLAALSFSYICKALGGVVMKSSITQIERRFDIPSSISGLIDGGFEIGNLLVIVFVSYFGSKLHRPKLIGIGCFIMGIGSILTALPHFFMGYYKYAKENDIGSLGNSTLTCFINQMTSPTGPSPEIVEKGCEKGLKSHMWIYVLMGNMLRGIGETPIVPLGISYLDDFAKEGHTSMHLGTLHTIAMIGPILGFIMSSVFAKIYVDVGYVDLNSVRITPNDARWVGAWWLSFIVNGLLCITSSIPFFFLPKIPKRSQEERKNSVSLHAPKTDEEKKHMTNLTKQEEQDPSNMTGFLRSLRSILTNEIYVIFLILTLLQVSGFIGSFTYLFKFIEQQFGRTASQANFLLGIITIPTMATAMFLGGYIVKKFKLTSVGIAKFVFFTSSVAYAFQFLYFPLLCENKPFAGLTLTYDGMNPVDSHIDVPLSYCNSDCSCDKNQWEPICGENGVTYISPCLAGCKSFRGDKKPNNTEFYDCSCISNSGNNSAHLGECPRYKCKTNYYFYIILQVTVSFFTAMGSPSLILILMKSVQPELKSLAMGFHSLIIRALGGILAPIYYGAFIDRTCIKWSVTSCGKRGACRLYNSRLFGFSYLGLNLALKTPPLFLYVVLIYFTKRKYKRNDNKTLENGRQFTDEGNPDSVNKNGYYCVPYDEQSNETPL
Description: (§3) Briefly, HEK-293 cells were grown, at 37°C and 5% CO2, in Dulbecco’s modified Eagle’s medium, which was fortified with 10% fetal bovine serum, 1% minimal essential medium nonessential amino acids, and 1% antibiotic-antimycotic solution. A day before transfection, cells were seeded onto 24-well poly-D-lysine-coated plates at a density of 2 × 10^5 cells per well. After incubation at 37°C and 5% CO2 for 24 h, the expression plasmid and the empty vector were introduced separately into the HEK293 cells with Lipofectamine 2000 transfection reagent (Invitrogen, Carlsbad, CA, United States), according to the manufacturer’s protocol to yield transporter-expressing cells and mock cells, respectively.
(§4) Transport studies were performed 48 h after the transfection. […] Differential uptake between the transfected cells and mock cells was defined as net transport ratio (TransportTC/TransportMC ratio), where TransportTC and TransportMC are the transport rates of a test Danshen compound into transfected and mock cells, respectively. […] The determination was performed under linear uptake conditions by incubation for 5 min. Table 1 summarizes the final concentrations of the test Danshen compounds for different transporters. All the incubation samples were analyzed by liquid chromatography/mass spectrometry.
(§5) GraFit software (version 5.0; Erithacus Software Ltd, Surrey, United Kingdom) was used to determine the K m and V max values by nonlinear regression analysis of initial transport rates as a function of substrate concentration.

OATP1B3 = biological target: T2, OATP1B3 (Homo sapiens, UniProt Q9NPD5); experiment: Cellular transport assay, HEK-293 cells expressing human OATP1B3; details: for TransportTC/TransportMC ratio (net transport ratio): 10 min; for K m / V max: 5 min incubation, concentrations in Table 1
T2 sequence (Q9NPD5 1-702): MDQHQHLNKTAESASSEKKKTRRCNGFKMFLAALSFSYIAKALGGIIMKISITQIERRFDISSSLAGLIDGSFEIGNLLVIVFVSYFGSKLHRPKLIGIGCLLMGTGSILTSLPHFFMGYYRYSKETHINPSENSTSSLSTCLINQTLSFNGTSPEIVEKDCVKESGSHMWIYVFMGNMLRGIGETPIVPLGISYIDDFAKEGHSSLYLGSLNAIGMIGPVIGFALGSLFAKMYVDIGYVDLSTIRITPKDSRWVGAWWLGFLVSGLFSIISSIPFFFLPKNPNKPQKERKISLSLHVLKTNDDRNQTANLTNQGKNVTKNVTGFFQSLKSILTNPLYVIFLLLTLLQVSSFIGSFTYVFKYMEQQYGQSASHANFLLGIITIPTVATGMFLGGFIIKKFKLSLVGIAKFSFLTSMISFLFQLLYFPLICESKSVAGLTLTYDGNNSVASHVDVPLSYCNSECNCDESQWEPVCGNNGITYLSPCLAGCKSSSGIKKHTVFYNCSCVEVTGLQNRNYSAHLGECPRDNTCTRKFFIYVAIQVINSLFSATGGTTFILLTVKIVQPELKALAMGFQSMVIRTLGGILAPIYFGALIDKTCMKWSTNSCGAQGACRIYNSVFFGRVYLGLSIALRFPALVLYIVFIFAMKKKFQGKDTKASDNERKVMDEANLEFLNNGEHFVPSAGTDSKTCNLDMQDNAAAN
Description: as §3, §4, §5

[1] = Danshen phenolic acid at 100 μM final concentration, human MRP3 vesicles
[2] = Danshen phenolic acid at 100 μM final concentration, human MRP2 vesicles
[3] = Danshen phenolic acid at 100 μM final concentration, rat Oatp1b2-transfected vs mock cells
[4] = rat hepatic sinusoidal uptake Oatp1b2, 5 min incubation, concentrations in Table 1
[5] = Danshen phenolic acid at 100 μM final concentration, human OATP1B3-transfected vs mock cells
[6] = human hepatic sinusoidal uptake OATP1B3
[7] = human, HEK-293 cells expressing human OATP1B3 (vs mock cells)

human MRP3, sequence (O15438 whole entry): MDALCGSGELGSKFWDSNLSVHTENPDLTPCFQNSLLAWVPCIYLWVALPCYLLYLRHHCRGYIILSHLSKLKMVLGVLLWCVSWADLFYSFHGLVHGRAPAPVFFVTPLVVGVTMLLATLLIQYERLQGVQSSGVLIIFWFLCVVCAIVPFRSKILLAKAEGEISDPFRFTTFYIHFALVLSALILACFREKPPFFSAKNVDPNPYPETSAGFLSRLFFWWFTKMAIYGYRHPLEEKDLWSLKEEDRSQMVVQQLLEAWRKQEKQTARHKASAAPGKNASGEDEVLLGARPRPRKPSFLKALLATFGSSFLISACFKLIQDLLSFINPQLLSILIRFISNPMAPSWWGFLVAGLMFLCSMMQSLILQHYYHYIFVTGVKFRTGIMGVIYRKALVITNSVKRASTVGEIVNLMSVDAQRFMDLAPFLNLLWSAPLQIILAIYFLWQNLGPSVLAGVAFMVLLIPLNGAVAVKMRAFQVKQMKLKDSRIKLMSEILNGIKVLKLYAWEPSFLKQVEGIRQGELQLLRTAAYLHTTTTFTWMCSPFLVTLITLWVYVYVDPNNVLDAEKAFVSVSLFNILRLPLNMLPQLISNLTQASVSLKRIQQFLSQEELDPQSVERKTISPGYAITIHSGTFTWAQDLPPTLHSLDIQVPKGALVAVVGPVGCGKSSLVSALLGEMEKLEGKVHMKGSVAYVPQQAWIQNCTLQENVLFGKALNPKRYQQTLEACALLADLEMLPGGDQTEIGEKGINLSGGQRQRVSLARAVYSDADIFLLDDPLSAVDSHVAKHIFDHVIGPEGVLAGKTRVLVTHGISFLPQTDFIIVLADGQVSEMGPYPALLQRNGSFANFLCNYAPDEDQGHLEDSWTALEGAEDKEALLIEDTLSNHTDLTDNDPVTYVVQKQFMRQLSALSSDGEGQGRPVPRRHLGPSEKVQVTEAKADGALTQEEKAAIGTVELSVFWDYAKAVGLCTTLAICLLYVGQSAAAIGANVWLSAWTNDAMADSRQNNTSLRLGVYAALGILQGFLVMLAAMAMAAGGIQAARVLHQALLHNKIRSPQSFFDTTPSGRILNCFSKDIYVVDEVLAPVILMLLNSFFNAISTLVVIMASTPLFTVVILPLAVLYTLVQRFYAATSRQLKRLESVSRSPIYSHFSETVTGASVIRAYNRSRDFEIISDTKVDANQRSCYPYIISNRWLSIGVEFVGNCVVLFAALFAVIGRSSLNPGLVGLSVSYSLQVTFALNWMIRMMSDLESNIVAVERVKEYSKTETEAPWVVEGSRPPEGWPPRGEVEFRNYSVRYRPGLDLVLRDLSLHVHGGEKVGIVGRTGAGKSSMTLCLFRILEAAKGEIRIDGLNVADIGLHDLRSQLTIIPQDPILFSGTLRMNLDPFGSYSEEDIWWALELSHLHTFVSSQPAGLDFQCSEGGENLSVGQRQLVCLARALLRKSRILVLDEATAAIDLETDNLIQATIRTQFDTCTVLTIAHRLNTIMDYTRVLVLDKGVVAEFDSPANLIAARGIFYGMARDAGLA
human MRP2, sequence (Q92887 whole entry): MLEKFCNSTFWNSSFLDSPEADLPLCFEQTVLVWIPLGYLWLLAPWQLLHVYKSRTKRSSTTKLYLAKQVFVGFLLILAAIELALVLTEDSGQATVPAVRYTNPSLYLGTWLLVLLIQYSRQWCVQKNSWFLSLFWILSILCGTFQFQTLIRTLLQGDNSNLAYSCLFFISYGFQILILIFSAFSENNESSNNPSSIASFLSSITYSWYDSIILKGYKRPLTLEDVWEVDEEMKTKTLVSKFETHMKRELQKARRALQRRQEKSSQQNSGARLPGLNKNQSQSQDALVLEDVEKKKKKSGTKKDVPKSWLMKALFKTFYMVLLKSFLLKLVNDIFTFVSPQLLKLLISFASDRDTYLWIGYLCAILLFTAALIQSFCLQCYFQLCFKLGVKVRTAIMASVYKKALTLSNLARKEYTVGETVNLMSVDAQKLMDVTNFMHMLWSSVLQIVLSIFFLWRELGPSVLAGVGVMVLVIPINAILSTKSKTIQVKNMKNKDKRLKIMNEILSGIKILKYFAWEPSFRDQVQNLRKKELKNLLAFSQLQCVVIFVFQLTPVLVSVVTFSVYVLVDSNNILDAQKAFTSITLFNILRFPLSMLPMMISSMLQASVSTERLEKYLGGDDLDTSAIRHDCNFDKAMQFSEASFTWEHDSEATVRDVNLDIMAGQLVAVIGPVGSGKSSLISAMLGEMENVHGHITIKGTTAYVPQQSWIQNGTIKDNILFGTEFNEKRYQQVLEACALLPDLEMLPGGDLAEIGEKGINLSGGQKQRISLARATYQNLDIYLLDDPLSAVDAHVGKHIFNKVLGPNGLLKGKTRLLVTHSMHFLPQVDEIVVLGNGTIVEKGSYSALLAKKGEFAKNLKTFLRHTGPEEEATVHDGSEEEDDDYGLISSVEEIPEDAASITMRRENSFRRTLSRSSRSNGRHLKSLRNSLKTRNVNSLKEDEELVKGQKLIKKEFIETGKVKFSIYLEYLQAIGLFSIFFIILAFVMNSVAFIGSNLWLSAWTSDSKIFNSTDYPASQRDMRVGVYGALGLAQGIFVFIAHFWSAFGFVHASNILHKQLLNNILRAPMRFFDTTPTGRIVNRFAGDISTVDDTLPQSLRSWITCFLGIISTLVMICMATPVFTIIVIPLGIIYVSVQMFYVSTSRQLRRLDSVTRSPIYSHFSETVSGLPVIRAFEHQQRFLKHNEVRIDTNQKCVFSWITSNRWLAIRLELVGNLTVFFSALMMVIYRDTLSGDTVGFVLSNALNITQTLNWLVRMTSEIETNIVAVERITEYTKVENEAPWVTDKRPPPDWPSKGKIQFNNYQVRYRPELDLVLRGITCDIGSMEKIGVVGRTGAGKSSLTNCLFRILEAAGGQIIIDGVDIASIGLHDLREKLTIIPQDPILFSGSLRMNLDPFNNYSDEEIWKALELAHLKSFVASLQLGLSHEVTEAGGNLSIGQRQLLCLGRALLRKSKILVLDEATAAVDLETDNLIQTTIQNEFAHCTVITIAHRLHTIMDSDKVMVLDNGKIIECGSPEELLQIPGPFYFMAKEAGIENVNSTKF

Row | microsomal CLint (rat Oatp1b2; rat) [µL/min/mg] | K m (OATP1B3; [6]) [µM] | V max (OATP1B3; [6]) [pmol/min/mg protein] | microsomal CLint (OATP1B3; [7]) [µL/min/mg] | Compound | TransportATP/TransportAMP ratio (net transport ratio) (human MRP3; [1]) | substrate of human MRP2 (human MRP2) | TransportATP/TransportAMP ratio (net transport ratio) (human MRP2; [2]) | substrate of rat Oatp1b2 (rat Oatp1b2) | TransportTC/TransportMC ratio (net transport ratio) (rat Oatp1b2; [3]) | K m (rat Oatp1b2; [4]) [µM] | substrate of human OATP1B3 (OATP1B3) | TransportTC/TransportMC ratio (net transport ratio) (OATP1B3; [5]) | TransportATP/TransportAMP ratio (net transport ratio) (human MRP3; human, 100 μM, pH 7) | TransportATP/TransportAMP ratio (net transport ratio) (human MRP2; human, 100 μM, pH 7) | TransportTC/TransportMC ratio (net transport ratio) (rat Oatp1b2; rat, 100 μM) | microsomal CLint (rat Oatp1b2; rat, other cell line) [µL/min/mg] | TransportTC/TransportMC ratio (net transport ratio) (OATP1B3; human, 100 μM) | other results
1 | 0.41 | 182 ± 26 | 9.59 ± 0.51 | 0.05 | O=C(/C=C/c1ccc(O)c2c1[C@H](C(=O)O)[C@@H](c1ccc(O)c(O)c1)O2)O[C@H](Cc1ccc(O)c(O)c1)C(=O)O [Lithospermic acid, lithospermic acid] | 1.72 ± 0.28 | substrates | 5.02 ± 1.67 | substrates | 11.6 ± 0.7 | 91.3 ± 10.6 | substrates | 8.02 ± 0.52 |  |  |  |  |  | 
2 |  |  |  |  | O=C(O)c1ccc(O)c(O)c1 [Protocatechuic acid, protocatechuic acid] | 1.25 ± 0.08 |  | 0.94 ± 0.31 | neither protocatechuic acid nor tanshinol was a substrate | 1.32 ± 0.45 |  |  | 0.75 ± 0.09 |  |  |  |  |  | 
3 |  |  |  |  | O=C(/C=C/c1ccc(O)c(O)c1)O[C@H](Cc1ccc(O)c(O)c1)C(=O)O [Rosmarinic acid, rosmarinic acid] |  |  |  | substrates |  | 2049 ± 418 | substrates |  | 1.38 ± 0.01 | 1.13 ± 0.34 | 17.0 ± 2.8 | 0.08 | 7.28 ± 0.58 | microsomal CLint (OATP1B3; human, other cell line): 0.09 µL/min/mg
4 |  |  |  |  | O=C(/C=C/c1ccc(O)c(O)c1/C=C/c1ccc(O)c(O)c1)O[C@H](Cc1ccc(O)c(O)c1)C(=O)O [Salvianolic acid A, salvianolic acid A] |  |  |  | substrate |  | 50.5 ± 12.8 | not a substrate |  | 1.54 ± 0.23 | 1.42 ± 0.31 | 7.52 ± 1.31 | 0.38 | 1.02 ± 0.31 | 
5 | 1.23 | 570 ± 79 | 98.5 ± 4.8 | 0.17 | O=C(O)Cc1c(/C=C/C(=O)O[C@H](Cc2ccc(O)c(O)c2)C(=O)O)ccc(O)c1O [Salvianolic acid D, salvianolic acid D] | 1.35 ± 0.30 |  | 1.51 ± 0.73 | substrates | 16.0 ± 0.8 | 464 ± 62 | substrates | 5.83 ± 0.49 |  |  |  |  |  | 

Row | Compound | microsomal CLint (rat Oatp1b2; rat) [µL/min/mg] | K m (OATP1B3; [6]) [µM] | V max (OATP1B3; [6]) [pmol/min/mg protein] | microsomal CLint (OATP1B3; [7]) [µL/min/mg] | TransportATP/TransportAMP ratio (net transport ratio) (human MRP3; [1]) | substrate of human MRP2 (human MRP2) | TransportATP/TransportAMP ratio (net transport ratio) (human MRP2; [2]) | substrate of rat Oatp1b2 (rat Oatp1b2) | TransportTC/TransportMC ratio (net transport ratio) (rat Oatp1b2; [3]) | K m (rat Oatp1b2; [4]) [µM] | substrate of human OATP1B3 (OATP1B3) | TransportTC/TransportMC ratio (net transport ratio) (OATP1B3; [5]) | TransportATP/TransportAMP ratio (net transport ratio) (human MRP3; human, 100 μM, pH 7) | TransportATP/TransportAMP ratio (net transport ratio) (human MRP2; human, 100 μM, pH 7) | TransportTC/TransportMC ratio (net transport ratio) (rat Oatp1b2; rat, 100 μM) | microsomal CLint (rat Oatp1b2; rat, other cell line) [µL/min/mg] | TransportTC/TransportMC ratio (net transport ratio) (OATP1B3; human, 100 μM) | other results
6 | salvianolic acid B |  | 13.0 ± 1.6 | 11.0 ± 0.4 |  | 1.47 ± 0.33 | substrates | 6.21 ± 1.32 | substrates | 30.0 ± 0.6 | 20.5 ± 1.9 | substrates | 16.2 ± 0.6 |  |  |  |  |  | CLint (rat Oatp1b2; rat hepatic sinusoidal uptake Oatp1b2): 0.87 μL/min/mg protein; V max (rat Oatp1b2; [4]): 17.7 ± 0.5 pmol/min/mg protein; CLint (OATP1B3; [6]): 0.85 μL/min/mg protein
